How the values were obtained:
[1] = biological target: T1, human orexin-2 receptor (Homo sapiens, UniProt O43614); test: Intracellular calcium measurement (FLIPR), OX2 receptor antagonistic activity; assay type: cell-based; settings: CHO cells expressing human orexin-2 receptor, agonist 10 nM human orexin-A, fluo-3 calcium
T1 construct: expressed in transfected cells; host or cells: CHO cells (G418 selection)
T1 sequence (O43614 1-444): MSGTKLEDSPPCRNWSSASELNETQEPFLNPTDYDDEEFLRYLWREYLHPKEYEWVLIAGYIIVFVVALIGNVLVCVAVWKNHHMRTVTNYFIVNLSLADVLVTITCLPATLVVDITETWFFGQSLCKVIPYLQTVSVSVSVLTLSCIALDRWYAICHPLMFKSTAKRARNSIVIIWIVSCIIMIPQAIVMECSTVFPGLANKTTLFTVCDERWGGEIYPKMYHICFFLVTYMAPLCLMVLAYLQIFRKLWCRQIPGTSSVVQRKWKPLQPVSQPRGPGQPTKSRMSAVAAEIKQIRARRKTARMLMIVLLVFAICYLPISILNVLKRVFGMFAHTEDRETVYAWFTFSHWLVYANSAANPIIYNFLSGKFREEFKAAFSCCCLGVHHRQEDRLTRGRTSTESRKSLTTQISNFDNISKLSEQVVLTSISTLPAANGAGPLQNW
Description: (§1) Determination of OX1 and OX2 Receptor Antagonistic Activities
(§2) The OX1 and OX2 receptor antagonistic activity of the compounds of formula (I) was determined in accordance with the following experimental method.
(§3) Intracellular Calcium Measurements
(§4) Chinese hamster ovary (CHO) cells expressing the human orexin-1 receptor or the human orexin-2 receptor, were grown in culture medium (Ham F-12 with L-Glutamine) containing 300 μg/ml G418, 100 U/ml penicillin, 100 μg/ml streptomycin and 10% inactivated foetal calf serum (FCS).
(§5) The cells were seeded at 80'000 cells/well into 96-well black clear bottom sterile plates (Costar) which had been precoated with 1% gelatine in Hanks' Balanced Salt Solution (HBSS). All reagents were from Gibco BRL.
(§6) The seeded plates were incubated overnight at 37° C. in 5% CO2.
(§7) Human orexin-A as an agonist was prepared as 1 mM stock solution in methanol:water (1:1), diluted in HBSS containing 0.1% bovine serum albumin (BSA) and 2 mM HEPES for use in the assay at a final concentration of 10 nM.
(§8) Antagonists were prepared as 10 mM stock solution in DMSO, then diluted in 96-well plates, first in DMSO, then in HBSS containing 0.1% bovine serum albumin (BSA) and 2 mM HEPES.
(§9) On the day of the assay, 100 μl of loading medium (HBSS containing 1% FCS, 2 mM HEPES, 5 mM probenecid (Sigma) and 3 μM of the fluorescent calcium indicator fluo-3 AM (1 mM stock solution in DMSO with 10% pluronic acid) (Molecular Probes) was added to each well.
(§10) The 96-well plates were incubated for 60 min at 37° C. in 5% CO2. The loading solution was then aspirated and cells were washed 3 times with 200 μl HBSS containing 2.5 mM probenecid, 0.1% BSA, 2 mM HEPES. 100 μl of that same buffer was left in each well. Within the Fluorescent Imaging Plate Reader (FLIPR, Molecular Devices), antagonists were added to the plate in a volume of 50 μl, incubated for 20 min and finally 100 μl of
(§11) agonist was added. Fluorescence was measured for each well at 1 second intervals, and the height of each fluorescence peak was compared to the height of the fluorescence peak induced by 10 nM orexin-A with buffer in place of antagonist. For each antagonist, IC50 value (the concentration of compound needed to inhibit 50% of the agonistic response) was determined.

[2] = biological target: T2, human orexin-1 receptor (Homo sapiens, UniProt O43613); test: Intracellular calcium measurement (FLIPR), OX1 receptor antagonistic activity; assay type: cell-based; settings: CHO cells expressing human orexin-1 receptor, agonist 10 nM human orexin-A, fluo-3 calcium
T2 construct: expressed in transfected cells; host or cells: CHO cells (G418 selection)
T2 sequence (O43613 1-425): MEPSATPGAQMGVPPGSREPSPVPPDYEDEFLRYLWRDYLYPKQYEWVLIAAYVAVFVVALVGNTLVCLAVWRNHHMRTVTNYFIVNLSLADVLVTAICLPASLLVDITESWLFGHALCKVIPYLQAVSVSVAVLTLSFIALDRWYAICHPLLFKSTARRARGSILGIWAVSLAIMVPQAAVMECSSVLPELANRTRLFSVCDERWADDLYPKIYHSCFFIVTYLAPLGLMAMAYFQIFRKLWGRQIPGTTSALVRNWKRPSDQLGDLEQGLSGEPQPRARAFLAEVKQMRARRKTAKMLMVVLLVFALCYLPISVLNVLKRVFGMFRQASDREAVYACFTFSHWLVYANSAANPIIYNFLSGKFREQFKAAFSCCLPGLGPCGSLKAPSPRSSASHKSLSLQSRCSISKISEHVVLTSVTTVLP
Description: as §1, §2, §3, §4, §5, §6, §7, §8, §9, §10, §11

SMILES	IC50 [1] [nM]	IC50 [2] [nM]
CCOc1ccccc1NC(=O)N(C(C)c1ccccc1)C1CCn2c1nc1ccccc1c2=O (stereo not shown) [Example 3, 3-(2-Ethoxy-phenyl)-1-(9-oxo-1,2,3,9-tetrahydro-pyrrolo[2,1-b]quinazolin-3-yl)-1-(1-phenyl-ethyl)-urea]	79	115
CCCc1ccccc1NC(=O)N(C(C)c1ccccc1)C1CCCn2c1nc1cc(F)c(F)cc1c2=O (stereo not shown) [Example 28, 1-(2,3-Difluoro-11-oxo-6,8,9,11-tetrahydro-7H-pyrido[2,1-b]quinazolin-6-yl)-1-(1-phenyl-ethyl)-3-(2-n-propyl-phenyl)-urea]	17	153
CCc1ccccc1NC(=O)N(C(C)c1ccccc1)C1CCCn2c1nc1cc(F)c(F)cc1c2=O (stereo not shown) [Example 30, 1-(2,3-Difluoro-11-oxo-6,8,9,11-tetrahydro-7H-pyrido[2,1-b]quinazolin-6-yl)-3-(2-ethyl-phenyl)-1-(1-phenyl-ethyl)-urea]	16	261
C[C@@H](c1ccccc1)N(C(=O)Nc1ccccc1OC(F)(F)F)C1CCn2c1nc1cccc(C(F)(F)F)c1c2=O (stereo partly drawn) [Example 49, 1-(9-Oxo-8-trifluoromethyl-1,2,3,9-tetrahydro-pyrrolo[2,1-b]quinazolin-3-yl)-1-((S)-1-phenyl-ethyl)-3-(2-trifluoromethoxy-phenyl)-urea]	16	12
CCc1ccccc1NC(=O)N(C1CCn2c1nc1cccc(C(F)(F)F)c1c2=O)[C@@H](C)c1ccccc1 (stereo partly drawn) [Example 51, 3-(2-Ethyl-phenyl)-1-(9-oxo-8-trifluoromethyl-1,2,3,9-tetrahydro-pyrrolo[2,1-b]quinazolin-3-yl)-1-((S)-1-phenyl-ethyl)-urea]	21	28
CC(c1ccccc1)N(C(=O)Nc1ccccc1-c1ccccc1)C1CCn2c1nc1cccc(Cl)c1c2=O (stereo not shown) [Example 41, 3-Biphenyl-2-yl-1-(8-chloro-9-oxo-1,2,3,9-tetrahydro-pyrrolo[2,1-b]quinazolin-3-yl)-1-(1-phenyl-ethyl)-urea]	14	52
CCCc1ccccc1NC(=O)N(C(C)c1ccccc1)C1CCCn2c1nc1cc(F)ccc1c2=O (stereo not shown) [Example 33, 1-(3-Fluoro-11-oxo-6,8,9,11-tetrahydro-7H-pyrido[2,1-b]quinazolin-6-yl)-1-(1-phenyl-ethyl)-3-(2-n-propyl-phenyl)-urea]	18	127
CC(c1ccccc1)N(C(=O)Nc1ccccc1OC(F)(F)F)C1CCn2c1nc1cccc(Cl)c1c2=O (stereo not shown) [Example 40]	14	37
CC(c1ccccc1)N(C(=O)Nc1ccccc1OC(F)(F)F)C1CCn2c1nc1cc(F)ccc1c2=O (stereo not shown) [Example 7, 1-(6-Fluoro-9-oxo-1,2,3,9-tetrahydro-pyrrolo[2,1-b]quinazolin-3-yl)-1-(1-phenyl-ethyl)-3-(2-trifluoromethoxy-phenyl)-urea]	27	2400
CCCc1ccccc1NC(=O)N(C1CCn2c1nc1cccc(C(F)(F)F)c1c2=O)[C@@H](C)c1ccccc1 (stereo partly drawn) [Example 50, 1-(9-Oxo-8-trifluoromethyl-1,2,3,9-tetrahydro-pyrrolo[2,1-b]quinazolin-3-yl)-1-((S)-1-phenyl-ethyl)-3-(2-n-propyl-phenyl)-urea]	18	14
CCCc1ccccc1NC(=O)N(C(C)c1ccccc1)C1CCn2c1nc1cccc(Cl)c1c2=O (stereo not shown) [Example 44, 1-(8-Chloro-9-oxo-1,2,3,9-tetrahydro-pyrrolo[2,1-b]quinazolin-3-yl)-1-(1-phenyl-ethyl)-3-(2-n-propyl-phenyl)-urea]	27	67
